# Results from patent US20110070174A1, “Benzoyl Peroxide and Sunscreen Agent Combination” (PruGen IP Holdings, Inc., priority 2009, published 2011).
# Columns and labels:
# Type in all cases: physicochemical
# [1] = Stability Study 3: BPO/sunscreen mixture, one month at room temperature; settings: for 1 MONTH-RT (content) / 1 MONTH-RT (percent of initial, in brackets): Study 3, 1 month room temperature; for % INITIAL (percent of initial, in brackets) / % INITIAL (content): Study 3, initial; for % INITIAL (content): in BPO/sunscreen mixture
# Excerpt: (§1) The stability provided by using the above formula and mixing process has heretofore been unmatched.
# [2] = Stability Study 2: BPO/sunscreen mixture, one month at room temperature; settings: for 1 MONTH-RT (content) / 1 MONTH-RT (percent of initial, in brackets): Study 2, 1 month room temperature; for % INITIAL (percent of initial, in brackets) / % INITIAL (content): Study 2, initial; for % INITIAL (content): in BPO/sunscreen mixture
# Excerpt: as §1
# [3] = Stability Study 4: BPO/sunscreen mixture, one month at room temperature; settings: for 1 MONTH-RT (content) / 1 MONTH-RT (percent of initial, in brackets): Study 4, 1 month room temperature; for % INITIAL (percent of initial, in brackets) / % INITIAL (content): Study 4, initial; for % INITIAL (content): in BPO/sunscreen mixture
# Excerpt: as §1
# [4] = Stability of sunscreen base and benzoyl peroxide each before mixing; settings: each agent separately, one-month repeatable studies
# Excerpt: as §1
# [5] = Multiple one-month room temperature studies after mixing the agents together; settings: BPO at various percentages
# Excerpt: as §1
# [6] = Stability Study 1: BPO/sunscreen mixture, one month at room temperature; settings: for 1 MONTH-RT (content) / 1 MONTH-RT (percent of initial, in brackets): Study 1, 1 month room temperature; for % INITIAL (percent of initial, in brackets) / % INITIAL (content): Study 1, initial; for % INITIAL (content): in BPO/sunscreen mixture
# Excerpt: as §1
Compound,1 MONTH-RT (content) [1],"1 MONTH-RT (percent of initial, in brackets) [1]","% INITIAL (percent of initial, in brackets) [1]",% INITIAL (content) [1],1 MONTH-RT (content) [2],"1 MONTH-RT (percent of initial, in brackets) [2]","% INITIAL (percent of initial, in brackets) [2]",% INITIAL (content) [2],1 MONTH-RT (content) [3],"1 MONTH-RT (percent of initial, in brackets) [3]","% INITIAL (percent of initial, in brackets) [3]",% INITIAL (content) [3],stability of each agent [4],potency after mixing [5],1 MONTH-RT (content) [6],"1 MONTH-RT (percent of initial, in brackets) [6]","% INITIAL (percent of initial, in brackets) [6]",% INITIAL (content) [6]
COc1ccc(C(=O)CC(=O)c2ccc(C(C)(C)C)cc2)cc1 [Avobenzone],2.69%,91.5%,100%,2.94%,2.78%,86%,100%,3.23%,–,–,–,–,–,–,–,–,–,–
"O=C(OOC(=O)c1ccccc1)c1ccccc1 [BPO, Benzoyl peroxide]",6.48%,107%,100%,6.02%,8.07%,94%,100%,8.55%,7.76%,108%,100%,7.16%,stable for at least one year,remained at full potency,7.76%,108%,100%,7.16%
CCCCC(CC)COC(=O)C(C#N)=C(c1ccccc1)c1ccccc1 (stereo not shown) [Octocrylene],–,–,–,–,–,–,–,–,6.42%,101%,100%,6.33%,–,–,6.42%,101%,100%,6.33%
